Two molecules from patent EP1902732A1, “PROPHYLACTIC/THERAPEUTIC AGENT FOR HER2-EXPRESSING CANCER” (Takeda Pharmaceutical Company Limited, priority 2005, dated 2006) can be followed below.

Test [1] relates to phosphorylated acetyl-CoA carboxylase (ACC). Put plainly: Western blotting of phosphorylated ACC in BT-474 cells. Type of test: cell-based, human. Conditions: Example 7, two hours, antimycin 1-0.01 nmol/L, oligomycin 100-1 ng/mL, 2,4-dinitrophenol 300-3 µmol/L. The method, then: (§1) Human HER2-expressing human breast cancer cell line BT-474 (purchased from American Tissue Culture Collection (ATCC)) was seeded into a 24-multiwell plate (BT-474: 1.2 x 10^5 cells/well) and cultured overnight in a carbon dioxide gas incubator (5% CO2, 37°C). As an energy metabolism inhibitor having a mechanism that differed from that of rotenone, mitochondrial respiratory chain complex III-inhibiting compound antimycin (Wako Pure Chemical Industries) was added to final concentrations of 1, 0.3, 0.1, 0.03 and 0.01 nmol/L while continuing culture. Using another plate, mitochondrial respiratory chain complex V-inhibiting compound oligomycin (Wako Pure Chemical Industries) was added to final concentrations of 100, 30, 10, 3 and 1 ng/mL while continuing culture. In addition, 2,4-dinitrophenol was added to 300, 100, 30, 10 and 3 µmol/L while continuing culture. Two hours after the addition of the agent, the broth was removed and the cells were lysed with an SDS sample buffer (200 µL). Then, this cell lysate was used to perform western blotting analysis. Specifically, this cell lysate (8 µL) was separated by an SDS-PAGE method (gel concentration: 7.5-15%) (Analytical Biochemistry, No. 166, pp. 368-379, 1987) and transferred onto a nitrocellulose membrane (BioRad). Then, an antibody specific to phosphorylated HER2 (Cell signaling technology, Code# 2244), pACC antibody specific to phosphorylated acetyl-CoA carboxylase (ACC) (Cell signaling technology, Code# 3661) and anti-phosphorylated S6K antibody specific to phosphorylated S6 kinase (S6K) (Cell signaling technology, Code# 9209) were used to detect the antibody by chemiluminescent detection with an ECL system (Amersham) to quantify an amount of phosphorylated protein with LAS-1000 plus image analysis device (FUJIFILM).
In general terms: In western blotting, separated proteins are transferred to a membrane and probed.

For test [2], the system named is phosphorylated S6 kinase (S6K). Put plainly: Western blotting of phosphorylated S6K in BT-474 cells. The format is cell-based, human. The conditions noted are these: Example 7, two hours, antimycin 1-0.01 nmol/L, oligomycin 100-1 ng/mL, 2,4-dinitrophenol 300-3 µmol/L. The method, then:
as §1

Test [3] has as its system BT-474 breast cancer cell. The test is described as follows: Viable cell count using Cell Counting Kit-F. Type of test: cell-based, human. The conditions noted are these: BT474; HER2-expressing cancer; five days of culture. As to the method:
(§2) BT-474 breast cancer cell, MDA-MB-453 breast cancer cell, A549 non-small cell lung cancer cell and LNCaP prostate cancer cell were used as human HER2-expressing cells while MDA-MB-231 breast cancer cell and A498 kidney cancer cell (all purchased from ATCC) were used as HER2-nonexpressing cells. Each of the cells used had been seeded into a 96-plate at 500cells/150 µL/well and cultured overnight. Each of the compounds, i.e., antimycin (final concentrations: 1, 0.1, 0.01 and 0.001 µmol/L), 2,4-dinitrophenol (final concentrations: 0.6, 0.2, 0.06 and 0.02 mmol/L), metformin (final concentrations: 25, 5, 1 and 0.2 mmol/L) and AICAR (final concentrations: 25, 5, 1 and 0.2 mmol/L) was diluted with a medium and added for 50 µL/well at a time to the final concentrations mentioned above. Following five days of culture at 37°C in 5% CO2, the cells were counted using Cell Counting Kit-F (Dojindo Laboratories).
(§3) Viable cell count using Cell Counting Kit-F was carried out by the following method according to the attached instruction. The supernatant was removed from the 96-well plate after five days of culture. Cell Counting Kit-F diluted 1000-fold with an RPMI medium (phenol red-free, serum-free) was added for 100 µL/well at a time. After 30 minutes of reaction at room temperature, fluorescence (excitation wavelength; 480 nm, fluorescent wavelength; 530 nm) was determined with a fluorescent plate reader.
(§4) From the determination results, percentage of the fluorescence level in the wells added with the compound was determined assuming that the fluorescence level in the wells without the addition of the compound (control) is 100%, and the remaining cellular quantity was determined in % with respect to that of the control.
(§5) BT-474 breast cancer cell, MDA-MB-453 breast cancer cell and LNCaP prostate cancer cell were used as human HER2-expressing cells while MDA-MB-231 breast cancer cell and A498 kidney cancer cell (all purchased from ATCC) were used as HER2-nonexpressing cells. Each of the cells used had been seeded into a 96-well plate at 500 cells/150 µL/well and cultured overnight. Troglitazone (final concentrations: 25, 6.25 and 1.56 µmol/L) was diluted with a medium, and added for 50 µL/well at a time to the final concentrations mentioned above. Following five days of culture at 37°C in 5% CO2, the cells were counted using Cell Counting Kit-F (Dojindo Laboratories).
(§6) From the determination results, percentage of the fluorescence level in the wells added with troglitazone was determined assuming that the fluorescence level in the wells without the addition of troglitazone (control) is 100%, and the remaining cellular quantity was determined in % with respect to that of the control.
In general terms: Formazan colour is commonly taken as a measure of viable cells.

For test [4], the system named is LNCaP prostate cancer cell. The test is described as follows: Viable cell count using Cell Counting Kit-F. The format is cell-based, human. The conditions noted are these: LNCaP; HER2-expressing cancer; five days of culture. The method, then:
as §2, §3, §4, §5, §6

Test [5] deals with MDA-MB-453 breast cancer cell. The test is described as follows: Viable cell count using Cell Counting Kit-F. Type of test: cell-based, human. The conditions noted are these: MB453; HER2-expressing cancer; five days of culture. As to the method: as §2, §3, §4, §5, §6
The subject of test [6] is DU145. The test is described as follows: Viable cell count using Cell Counting Kit-F. The format is cell-based. Conditions: HER2-nonexpressing cancer, five days of culture.

Take `O=[N+]([O-])c1ccc(O)c([N+](=O)[O-])c1` [2,4-dinitrophenol]: the “phosphorylation of ACC” value in test [1] is given as “increased dose-dependently”. Moreover, in test [2], the “phosphorylation of S6K” value was “suppressed”. The “minimum concentrations for inhibiting cell proliferation for 50% or more” value is recorded as below 0.02 mmol/L in test [3], below 0.02 mmol/L in test [4], below 0.02 mmol/L in test [5] and 0.067 mmol/L in test [6].
antimycin: in test [1], the “phosphorylation of ACC” value is “increased dose-dependently”. The “phosphorylation of S6K” value in test [2] is “suppressed”. The “minimum concentrations for inhibiting cell proliferation for 50% or more” value is 1e-06 mmol/L in test [3], 1e-06 mmol/L in test [4], 1e-06 mmol/L in test [5] and above 0.0001 mmol/L in test [6].
